test system: SUM149PT; experiment: Cytotoxicity against human triple negative SUM149PT cells assessed as cell viability measured by MTS assay; assay type: functional, cell-based

SMILES	IC50 [µM]
CCCCc1nc(-c2ccc(OCCC)cc2)nn1-c1ccc(Oc2ccccc2)cc1	13.7
CCN(CC)CCCOc1ccc(-c2nc(CCOC)n(-c3ccc(Oc4ccc(Cl)cc4)cc3)n2)cc1	12.5
CCCCc1nc(-c2ccc(OCCCN(CC)CC)cc2)nn1-c1ccc(-c2ccc(OC)cc2OC)cc1	0.487
CCCCc1nc(-c2ccc(OCCCN(CC)CC)cc2)nn1-c1ccc(-c2ccc(C(=O)OCC)cc2)cc1	0.328
CCCCc1nc(-c2ccc(OCCCN(CC)CC)cc2)nn1-c1ccc(-c2ccc(C#N)cc2)cc1	5.43
CCCCc1nc(-c2ccc(OCCOCC)cc2)nn1-c1ccc(Oc2ccc(Cl)cc2)cc1	18.6
CCCCc1nc(-c2ccc(OCCCN(CC)CC)cc2)nn1-c1ccc(-c2ccnn2C)cc1	0.665
CCCCc1nc(-c2ccc(OCCCN(CC)CC)cc2)nn1-c1ccc(-c2ccc(OC(F)(F)F)cc2)cc1	0.664
CCCCc1nc(-c2ccc(OCCCN(CC)CC)cc2)nn1-c1ccc(Oc2ccc(Cl)cc2)cc1	6.29
CCCCOc1ccc(-c2nc(CCCC)n(-c3ccc(Oc4ccc(Cl)cc4)cc3)n2)cc1	16
CCCCc1nc(-c2ccc(OCCCN(CC)CC)cc2)nn1-c1ccc(-c2ccc(OC)cc2)cc1	0.588
CCCCc1nc(-c2ccc(OCCN3CCCCC3)cc2)nn1-c1ccc(Oc2ccc(Cl)cc2)cc1	5.68
CCCCc1nc(-c2ccc(OCCCN(CC)CC)cc2)nn1-c1ccc(Oc2ccccc2)cc1	0.538
CCCCc1nc(-c2ccc(OCCCN(CC)CC)cc2)nn1-c1ccc(-c2ccc(C)cc2)cc1	0.267
CCCCc1nc(-c2ccc(OCCCN(CC)CC)cc2)nn1-c1ccc(-c2ccc(Cl)cc2)cc1	0.22
CCCCc1nc(-c2ccc(OCCCN(CC)CC)cc2)cn1-c1ccc(Oc2ccc(Cl)cc2)cc1 [AZELIRAGON]	5.29

Source: ChEMBL document CHEMBL5032533, “Design, synthesis and anti-TNBC activity of Azeliragon triazole analogues” (Bioorg Med Chem Lett, 2021)
